Measurements as given in ChEMBL document CHEMBL4602626, “Structure activity relationship, 6-modified purine riboside analogues to activate hSTING, stimulator of interferon genes” (Bioorg Med Chem Lett, 2020).
Calls of active or inactive are those of the source. No cut-off for these calls is given here.

target: Stimulator of interferon genes protein (Homo sapiens) (UniProt Q86WV6); assay: Activation of human STING expressed in monocytes co-expressing IFN assessed as alkaline phosphatase secretion by SEAP reporter gene assay; assay type: cell-based
Sequence (Q86WV6 whole entry): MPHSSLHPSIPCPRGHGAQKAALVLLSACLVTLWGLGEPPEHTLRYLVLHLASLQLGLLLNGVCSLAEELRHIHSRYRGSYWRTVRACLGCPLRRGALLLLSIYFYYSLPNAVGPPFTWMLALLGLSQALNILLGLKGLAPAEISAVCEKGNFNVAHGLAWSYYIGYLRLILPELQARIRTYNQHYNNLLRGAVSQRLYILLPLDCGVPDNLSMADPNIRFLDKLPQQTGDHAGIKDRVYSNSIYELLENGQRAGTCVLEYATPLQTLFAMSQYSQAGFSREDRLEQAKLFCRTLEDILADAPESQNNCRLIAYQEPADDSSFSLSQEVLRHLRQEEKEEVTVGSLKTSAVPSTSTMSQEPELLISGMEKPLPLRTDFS

Row | Structure (SMILES) | Activity
1 | C=CCNc1ncnc2c1ncn2[C@@H]1O[C@H](CO)[C@@H](O)[C@H]1O | Active
2 | CCOc1ncnc2c1ncn2[C@@H]1O[C@H](COC(=O)C(C)C)[C@@H](OC(=O)C(C)C)[C@H]1OC(=O)C(C)C | Active
3 | CCOc1ncnc2c1ncn2[C@@H]1O[C@H](COC(=O)[C@@H](N)C(C)C)[C@@H](O)[C@H]1O | Active
4 | OC[C@H]1O[C@@H](n2cnc3c(OCC(F)F)ncnc32)[C@H](O)[C@@H]1O | Active
5 | CN(C)/C=N/c1nc2c(ncn2[C@@H]2O[C@H](CO)[C@@H](O)[C@H]2O)c(=O)[nH]1 | inactive
6 | CCOc1ncnc2c1ncn2[C@@H]1O[C@H](COP(=O)(N[C@@H](C)C(=O)OC(C)C)Oc2ccccc2)[C@@H](O)[C@H]1O (some centres undefined) | Active
7 | CN(C)CCNc1ncnc2c1ncn2[C@@H]1O[C@H](CO)[C@@H](O)[C@H]1O | Active
8 | CN(C)/C=N/c1ncnc2[nH]cnc12 | inactive
9 | OC[C@H]1O[C@@H](n2cnc3c(NCc4ccc(-c5ccccc5)cc4)ncnc32)[C@H](O)[C@@H]1O | Active
10 | CCOc1ncnc2c1ncn2[C@H]1C[C@H](O)[C@@H](CO)O1 | inactive
11 | CCOc1nc(N)nc2c1ncn2[C@@H]1O[C@H](CO)[C@@H](O)[C@H]1O | inactive
12 | CCCOc1ncnc2c1ncn2[C@@H]1O[C@H](CO)[C@@H](O)[C@H]1O | Active
13 | CCCCC(=O)OC[C@H]1O[C@@H](n2cnc3c(OCC)ncnc32)[C@H](O)[C@@H]1O | Active
14 | CCCCC(=O)OC[C@H]1O[C@@H](n2cnc3c(OCC)ncnc32)[C@H](OC(=O)CCCC)[C@@H]1OC(=O)CCCC | Active
15 | OC[C@H]1O[C@@H](n2cnc3c(OCc4ccccc4)ncnc32)[C@H](O)[C@@H]1O | inactive
16 | CCNc1ncnc2c1ncn2[C@@H]1O[C@H](CO)[C@@H](O)[C@H]1O | Active
17 | CN(C)/C=N/c1ncnc2c1ncn2[C@@H]1O[C@H](CO)[C@@H](O)[C@H]1O | Active
18 | CC(C)Oc1ncnc2c1ncn2[C@@H]1O[C@H](CO)[C@@H](O)[C@H]1O | inactive
19 | COCCNc1ncnc2c1ncn2[C@@H]1O[C@H](CO)[C@@H](O)[C@H]1O | Active
20 | OC[C@H]1O[C@@H](n2cnc3c(OCC(F)(F)F)ncnc32)[C@H](O)[C@@H]1O | Active
21 | CCOc1ncnc2c1ncn2[C@@H]1O[C@H](CO)[C@@H](O)[C@H]1O | Active
22 | CN(C)/C=N/c1ccn([C@@H]2O[C@H](CO)[C@@H](O)[C@H]2O)c(=O)n1 | inactive
23 | COc1ncnc2c1ncn2[C@@H]1O[C@H](CCl)[C@@H](O)[C@H]1O | inactive
24 | CC(C)CNc1ncnc2c1ncn2[C@@H]1O[C@H](CO)[C@@H](O)[C@H]1O | Active
25 | OC[C@H]1O[C@@H](n2cnc3c(NCc4ccccc4)ncnc32)[C@H](O)[C@@H]1O | Active
26 | CN(C)/C=N/c1ncnc2c1ncn2[C@H]1C[C@H](O)[C@@H](CO)O1 | inactive
27 | CCOc1ncnc2[nH]cnc12 | inactive

target: Stimulator of interferon genes protein (Homo sapiens) (UniProt Q86WV6); assay: Activation of human STING expressed in monocytes co-expressing IFN assessed as alkaline phosphatase secretion in presence of adenosine deaminase inhibitor erytftro-9-(2-hydroxy-3-nonyl) adenine by SEAP reporter gene assay; assay type: cell-based

Row | Structure (SMILES) | Activity
28 | CCOc1ncnc2c1ncn2[C@@H]1O[C@H](CO)[C@@H](O)[C@H]1O | Active

target: Stimulator of interferon genes protein (Homo sapiens) (UniProt Q86WV6); assay: Activation of human STING expressed in monocytes co-expressing IFN assessed as alkaline phosphatase secretion in presence of adenosine kinase inhibitor 5-iodotubercidin by SEAP reporter gene assay; assay type: cell-based

Row | Structure (SMILES) | Activity
29 | CCOc1ncnc2c1ncn2[C@@H]1O[C@H](CO)[C@@H](O)[C@H]1O | inactive
